Values quoted from earlier work, collected in US10858575B2, “Temperature-stable corrosion inhibitor compositions and methods of use” (ChampionX USA Inc., priority 2017, dated 2020).

Settings: octanol/water

SMILES | LogP
O=C1CCCO1 | −0.57

Settings: at 20° C.

SMILES | vapor pressure [mm Hg]
CCCCOCCOCCO [diethylene glycol butyl ether] | 30
CCOCCOCCO [diethylene glycol ethyl ether] | 0.12
CCCCCCOCCOCCO [diethylene glycol hexyl ether] | 0.001
COCCOCCO [diethylene glycol methyl ether] | 0.2
COC(C)COC(C)CO (centres unmarked) [dipropylene glycol methyl ether] | 0.28
CCCOC(C)COC(C)CO (centres unmarked) [dipropylene glycol propyl ether] | 0.08
CCCCOCCO [ethylene glycol butyl ether] | 10
CCOCCO [ethylene glycol ethyl ether] | 3.8
CCCCCCOCCO [ethylene glycol hexyl ether] | 0.05
CCCCOCC(C)O (centres unmarked) [propylene glycol butyl ether] | 0.85
COCC(C)O (centres unmarked) [propylene glycol methyl ether] | 8.7
CCCOCC(C)O (centres unmarked) [propylene glycol propyl ether] | 4.5
CCCCOC(C)COC(C)COC(C)CO (centres unmarked) [tripropylene glycol butyl ether] | 0.002
